{"source": "patent US20240059671A1", "about": "“TYROSINE KINASE 2 (TYK2) DEGRADATION COMPOUNDS AND METHODS OF USE” (CULLGEN (SHANGHAI), INC., priority 2020, published 2024)", "biological_target": "TYK2 (Homo sapiens, UniProt P29597)", "sequence (P29597 whole entry)": "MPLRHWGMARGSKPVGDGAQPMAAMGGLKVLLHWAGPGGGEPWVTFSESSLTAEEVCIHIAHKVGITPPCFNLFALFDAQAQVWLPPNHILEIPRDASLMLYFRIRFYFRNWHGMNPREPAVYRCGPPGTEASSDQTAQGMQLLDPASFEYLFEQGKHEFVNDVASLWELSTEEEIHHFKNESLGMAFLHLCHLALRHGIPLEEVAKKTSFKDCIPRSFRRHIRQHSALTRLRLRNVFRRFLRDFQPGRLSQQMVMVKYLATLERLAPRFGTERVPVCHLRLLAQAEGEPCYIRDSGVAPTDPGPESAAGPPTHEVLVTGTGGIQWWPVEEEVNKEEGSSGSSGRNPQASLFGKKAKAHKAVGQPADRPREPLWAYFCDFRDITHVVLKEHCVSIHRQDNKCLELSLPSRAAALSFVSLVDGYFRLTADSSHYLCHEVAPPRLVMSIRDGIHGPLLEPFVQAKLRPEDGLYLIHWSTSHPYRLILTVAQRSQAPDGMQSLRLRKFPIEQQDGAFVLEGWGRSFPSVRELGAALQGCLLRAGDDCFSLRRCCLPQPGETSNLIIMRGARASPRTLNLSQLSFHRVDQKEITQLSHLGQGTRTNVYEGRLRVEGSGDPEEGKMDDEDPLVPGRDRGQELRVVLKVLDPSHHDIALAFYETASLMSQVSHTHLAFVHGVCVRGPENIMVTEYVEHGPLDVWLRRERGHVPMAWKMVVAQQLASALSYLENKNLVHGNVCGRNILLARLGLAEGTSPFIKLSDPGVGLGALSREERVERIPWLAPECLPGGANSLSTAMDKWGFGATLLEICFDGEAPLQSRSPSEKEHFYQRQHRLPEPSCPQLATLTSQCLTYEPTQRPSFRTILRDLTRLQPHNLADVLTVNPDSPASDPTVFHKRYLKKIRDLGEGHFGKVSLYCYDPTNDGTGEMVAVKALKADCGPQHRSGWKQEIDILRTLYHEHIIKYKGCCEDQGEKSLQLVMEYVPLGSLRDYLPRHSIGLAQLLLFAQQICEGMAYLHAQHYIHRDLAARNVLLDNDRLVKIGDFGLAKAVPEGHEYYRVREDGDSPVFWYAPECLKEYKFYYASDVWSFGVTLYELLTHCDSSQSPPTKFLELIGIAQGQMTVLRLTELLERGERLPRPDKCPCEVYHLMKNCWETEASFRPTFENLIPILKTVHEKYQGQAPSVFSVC", "experiment": "TYK2 protein degradation in MOLT-4 cells by immunoblotting", "format": "cell-based", "set-up": "endogenous in cells; host or cells: MOLT-4", "conditions": "MOLT-4 cells, 24 hours", "how_it_was_run": "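Percent TYK2 degradation came from densitometry of chemiluminescent immunoblots of RIPA lysates. Before lysis, MOLT-4 cells had been treated for 24 h with each compound at 0.5 or 5 μM.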"}
{"smiles": "CNC(=O)c1nnc(NC(=O)C2CC2)cc1Nc1cccc(-c2ncn(CCNC(=O)CCCCCCCC(=O)N[C@H](C(=O)N3C[C@H](O)C[C@H]3C(=O)NCc3ccc(-c4scnc4C)cc3)C(C)(C)C)n2)c1OC", "note": "[CPD-080, N^1-(2-(3-(3-((6-(Cyclopropanecarboxamido)-3-(methylcarbamoyl)pyridazin-4-yl)amino)-2-methoxyphenyl)-1H-1,2,4-triazol-1-yl)ethyl)-N^9-((S)-1-((2S,4R)-4-hydroxy-2-((4-(4-methylthiazol-5-yl)benzyl)carbamoyl)pyrrolidin-1-yl)-3,3-dimethyl-1-oxobutan-2-yl)nonanediamide]", "values": [{"measurement": "TYK2 Degradation (MOLT-4, 0.5 μM)", "value": "C (C: ≤20% TYK2 degradation)"}, {"measurement": "TYK2 Degradation (MOLT-4, 5 μM)", "value": "C (C: ≤20% TYK2 degradation)"}]}
{"smiles": "CNC(=O)c1nnc(NC(=O)CNC(=O)CCCCCCCCCCNC(=O)C[C@H](NC(=O)[C@@H]2C[C@@H](O)CN2C(=O)[C@@H](NC(=O)C2(F)CC2)C(C)(C)C)c2ccc(-c3scnc3C)cc2)cc1Nc1cccc(-c2ncn(C)n2)c1OC", "note": "[CPD-095, 6-(2-(11-((S)-3-((2S,4R)-1-((S)-2-(1-Fluorocyclopropane-1-carboxamido)-3,3-dimethylbutanoyl)-4-hydroxypyrrolidine-2-carboxamido)-3-(4-(4-methylthiazol-5-yl)phenyl)propanamido)undecanamido)acetamido)-4-((2-methoxy-3-(1-methyl-1H-1,2,4-triazol-3-yl)phenyl)amino)-N-methylpyridazine-3-carboxamide]", "values": [{"measurement": "TYK2 Degradation (MOLT-4, 0.5 μM)", "value": "B (B: <60% TYK2 degradation, and >20% TYK2 degradation)"}, {"measurement": "TYK2 Degradation (MOLT-4, 5 μM)", "value": "A (A: ≥60% TYK2 degradation)"}]}
{"smiles": "CNC(=O)c1nnc(Nc2ccc(N3CCN(C(=O)CC(=O)N[C@H](C(=O)N4C[C@H](O)C[C@H]4C(=O)NCc4ccc(-c5scnc5C)cc4)C(C)(C)C)CC3)cn2)cc1Nc1cccc(-c2ncn(C)n2)c1OC", "note": "[CPD-111, 6-((5-(4-(3-(((S)-1-((2S,4R)-4-Hydroxy-2-((4-(4-methylthiazol-5-yl)benzyl)carbamoyl)pyrrolidin-1-yl)-3,3-dimethyl-1-oxobutan-2-yl)amino)-3-oxopropanoyl)piperazin-1-yl)pyridin-2-yl)amino)-4-((2-methoxy-3-(1-methyl-1H-1,2,4-triazol-3-yl)phenyl)amino)-N-methylpyridazine-3-carboxamide]", "values": [{"measurement": "TYK2 Degradation (MOLT-4, 0.5 μM)", "value": "B (B: <60% TYK2 degradation, and >20% TYK2 degradation)"}, {"measurement": "TYK2 Degradation (MOLT-4, 5 μM)", "value": "B (B: <60% TYK2 degradation, and >20% TYK2 degradation)"}]}
{"smiles": "CNC(=O)c1nnc(NC(=O)CNC(=O)CCCCNc2ccc3c(c2)C(=O)N(C2CCC(=O)NC2=O)C3=O)cc1Nc1cccc(-c2ncn(C)n2)c1OC", "note": "(stereo not shown) [CPD-057, 6-(2-(5-((2-(2,6-Dioxopiperidin-3-yl)-1,3-dioxoisoindolin-5-yl)amino)pentanamido)acetamido)-4-((2-methoxy-3-(1-methyl-1H-1,2,4-triazol-3-yl)phenyl)amino)-N-methylpyridazine-3-carboxamide]", "values": [{"measurement": "TYK2 Degradation (0.5 μM)", "value": "≤20", "unit": "%"}, {"measurement": "TYK2 Degradation (5 μM)", "value": "≤20", "unit": "%"}]}
{"smiles": "CNC(=O)c1nnc(NC(=O)CNC(=O)CCCCCCCCOc2cc(-c3scnc3C)ccc2CNC(=O)[C@@H]2C[C@@H](O)CN2C(=O)[C@@H](NC(=O)C2(F)CC2)C(C)(C)C)cc1Nc1cccc(-c2ncn(C)n2)c1OC", "note": "[CPD-108, 6-(2-(9-(2-(((2S,4R)-1-((S)-2-(1-Fluorocyclopropane-1-carboxamido)-3,3-dimethylbutanoyl)-4-hydroxypyrrolidine-2-carboxamido)methyl)-5-(4-methylthiazol-5-yl)phenoxy)nonanamido)acetamido)-4-((2-methoxy-3-(1-methyl-1H-1,2,4-triazol-3-yl)phenyl)amino)-N-methylpyridazine-3-carboxamide]", "values": [{"measurement": "TYK2 Degradation (MOLT-4, 0.5 μM)", "value": "C (C: ≤20% TYK2 degradation)"}, {"measurement": "TYK2 Degradation (MOLT-4, 5 μM)", "value": "C (C: ≤20% TYK2 degradation)"}]}
{"smiles": "CNC(=O)c1nnc(NC(=O)C2CC2)cc1Nc1cccc(-c2ncn(CCNC(=O)CCOCCOCCNc3ccc4c(c3)C(=O)N(C3CCC(=O)NC3=O)C4=O)n2)c1OC", "note": "(stereo not shown) [CPD-019, 6-(Cyclopropanecarboxamido)-4-((3-(1-(2-(3-(2-(2-((2-(2,6-dioxopiperidin-3-yl)-1,3-dioxoisoindolin-5-yl)amino)ethoxy)ethoxy)propanamido)ethyl)-1H-1,2,4-triazol-3-yl)-2-methoxyphenyl)amino)-N-methylpyridazine-3-carboxamide]", "values": [{"measurement": "TYK2 Degradation (0.5 μM)", "value": "≤20", "unit": "%"}]}
{"smiles": "CNC(=O)c1nnc(NC(=O)C2CC2)cc1Nc1cccc(-c2ncn(CCNC(=O)CCOCCOCCOCCOCCOCCC(=O)N[C@H](C(=O)N3C[C@H](O)C[C@H]3C(=O)NCc3ccc(-c4scnc4C)cc3)C(C)(C)C)n2)c1OC", "note": "[CPD-074, N^1-(2-(3-(3-((6-(Cyclopropanecarboxamido)-3-(methylcarbamoyl)pyridazin-4-yl)amino)-2-methoxyphenyl)-1H-1,2,4-triazol-1-yl)ethyl)-N^19-((S)-1-((2S,4R)-4-hydroxy-2-((4-(4-methylthiazol-5-yl)benzyl)carbamoyl)pyrrolidin-1-yl)-3,3-dimethyl-1-oxobutan-2-yl)-4,7,10,13,16-pentaoxanonadecanediamide]", "values": [{"measurement": "TYK2 Degradation (0.5 μM)", "value": "≤20", "unit": "%"}, {"measurement": "TYK2 Degradation (5 μM)", "value": "≤20", "unit": "%"}]}
{"smiles": "CNC(=O)c1nnc(NC(=O)CNC(=O)CCCOc2cc(-c3scnc3C)ccc2CNC(=O)[C@@H]2C[C@@H](O)CN2C(=O)[C@@H](NC(=O)C2(F)CC2)C(C)(C)C)cc1Nc1cccc(-c2ncn(C)n2)c1OC", "note": "[CPD-103, 6-(2-(4-(2-(((2S,4R)-1-((S)-2-(1-Fluorocyclopropane-1-carboxamido)-3,3-dimethylbutanoyl)-4-hydroxypyrrolidine-2-carboxamido)methyl)-5-(4-methylthiazol-5-yl)phenoxy)butanamido)acetamido)-4-((2-methoxy-3-(1-methyl-1H-1,2,4-triazol-3-yl)phenyl)amino)-N-methylpyridazine-3-carboxamide]", "values": [{"measurement": "TYK2 Degradation (MOLT-4, 0.5 μM)", "value": "C (C: ≤20% TYK2 degradation)"}, {"measurement": "TYK2 Degradation (MOLT-4, 5 μM)", "value": "C (C: ≤20% TYK2 degradation)"}]}
{"smiles": "CNC(=O)c1nnc(NC(=O)C2CC2)cc1Nc1cccc(-c2ncn(CCNC(=O)COCCOCCOCC(=O)N[C@H](C(=O)N3C[C@H](O)C[C@H]3C(=O)NCc3ccc(-c4scnc4C)cc3)C(C)(C)C)n2)c1OC", "note": "[CPD-070, 6-(Cyclopropanecarboxamido)-4-((3-(1-((S)-16-((2S,4R)-4-hydroxy-2-((4-(4-methylthiazol-5-yl)benzyl)carbamoyl)pyrrolidine-1-carbonyl)-17,17-dimethyl-4,14-dioxo-6,9,12-trioxa-3,15-diazaoctadecyl)-1H-1,2,4-triazol-3-yl)-2-methoxyphenyl)amino)-N-methylpyridazine-3-carboxamide]", "values": [{"measurement": "TYK2 Degradation (0.5 μM)", "value": "≤20", "unit": "%"}, {"measurement": "TYK2 Degradation (5 μM)", "value": "≤20", "unit": "%"}]}
{"smiles": "CNC(=O)c1nnc(NC(=O)CNC(=O)CCNc2ccc3c(c2)C(=O)N(C2CCC(=O)NC2=O)C3=O)cc1Nc1cccc(-c2ncn(C)n2)c1OC", "note": "(stereo not shown) [CPD-055, 6-(2-(3-((2-(2,6-Dioxopiperidin-3-yl)-1,3-dioxoisoindolin-5-yl)amino)propanamido)acetamido)-4-((2-methoxy-3-(1-methyl-1H-1,2,4-triazol-3-yl)phenyl)amino)-N-methylpyridazine-3-carboxamide]", "values": [{"measurement": "TYK2 Degradation (0.5 μM)", "value": "≤20", "unit": "%"}, {"measurement": "TYK2 Degradation (5 μM)", "value": "≤20", "unit": "%"}]}
